21 compounds from patent US20100119479A1, “THERAPEUTIC ANTIVIRAL PEPTIDES” (INTERMUNE, INC., priority 2008, published 2010) can be followed below.

Structures are written as SMILES. Where only a bound is given, the exact number is not on record here.

Assay [1] concerns HCV sub-genomic replicon, GS4.3 (HuH-7 hepatoma cells). Briefly: Quantitation by ELISA of NPTII in the HCV sub-genomic replicon, GS4.3. It is filed as cell-based. The note with it: Hepatitis C virus, GS4.3 replicon cells, 72 h incubation. The method, boiled down: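 HuH-7 cells carrying the 1377/NS3-3′ subgenomic replicon were seeded 24 h ahead, then treated in G418-free medium with 3-fold dilutions from 10 μM (1% DMSO, duplicates) for 72 h at 37 °C, 5% CO2. NPTII in lysates was measured by ELISA (TMB, 450 nm). EC50 came from a 4-parameter fit of percent DMSO-control signal.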

Assay [2] has as its target T1, full-length NS3/NS4A-2 (HCV NS3 protease) (Hepatitis C virus genotype 1b, UniProt Q9WMX2).
T1 construct: Recombinant E. coli or Baculovirus full-length NS3; host or cells: E. coli or baculovirus (BV) expression
Briefly: NS3 Inhibition Assay (NS3-NS4 protease assay, RETS1 substrate). It is filed as biochemical. The note with it: NS3/NS4A-2 protease. The method, boiled down: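 Full-length NS3 (E. coli 2 nM or baculovirus 3 nM) precomplexed with excess NS4A-2, preincubated 10 min at room temperature with compound (top 50 μM). Then 2 μM RETS1 FRET substrate added, fluorescence (ex 335/em 495 nm) read kinetically for 30 min. IC50 by 4-parameter fit, converted to Ki using Km 2.03 μM (E. coli) or 1.74 μM (BV).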

T1 sequence (Q9WMX2 1027-1657): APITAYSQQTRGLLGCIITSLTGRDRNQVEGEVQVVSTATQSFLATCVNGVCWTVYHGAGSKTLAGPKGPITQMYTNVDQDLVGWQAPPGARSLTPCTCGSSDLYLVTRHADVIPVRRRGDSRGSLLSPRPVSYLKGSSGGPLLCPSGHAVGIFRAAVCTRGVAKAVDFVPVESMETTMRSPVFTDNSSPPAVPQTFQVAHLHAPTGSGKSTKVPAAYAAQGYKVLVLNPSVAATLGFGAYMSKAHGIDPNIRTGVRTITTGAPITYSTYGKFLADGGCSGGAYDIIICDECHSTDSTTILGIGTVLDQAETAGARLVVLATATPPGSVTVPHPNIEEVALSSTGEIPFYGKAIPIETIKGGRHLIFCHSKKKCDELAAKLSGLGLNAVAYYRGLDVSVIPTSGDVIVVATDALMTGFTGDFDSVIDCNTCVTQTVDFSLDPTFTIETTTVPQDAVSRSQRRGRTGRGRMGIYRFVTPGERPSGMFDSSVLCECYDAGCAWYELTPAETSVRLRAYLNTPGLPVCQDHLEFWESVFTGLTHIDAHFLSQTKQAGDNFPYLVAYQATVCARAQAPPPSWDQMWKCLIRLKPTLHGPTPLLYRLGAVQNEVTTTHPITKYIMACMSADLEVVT
T1 sequence (Q9WMX2 1658-1711): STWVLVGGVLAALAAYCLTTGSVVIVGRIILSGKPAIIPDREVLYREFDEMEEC

As for `CC[C@@H]1C[C@]1(NC(=O)[C@@H]1C[C@@H](OC(=O)N2Cc3ccc(NC(=O)CN4CCOCC4)cc3C2)CN1C(=O)[C@@H](Nc1cc(F)cc(C(F)(F)F)c1)C(C)(C)C)C(=O)NS(=O)(=O)C1CC1` [Compound 20], the EC50 in assay [1] is < 0.1 µM. Also, the IC50 in assay [2] was < 0.1 µM.

For the compound `C=C[C@@H]1C[C@]1(NC(=O)[C@@H]1C[C@@H](Oc2cc(-c3nc(C(C)C)cs3)nc3c(C)c(OC)ccc23)CN1C(=O)[C@@H](Nc1cc(F)cc(C(F)(F)F)c1)C(C)(C)C)C(=O)NS(=O)(=O)N(C)C` [Compound 307], the EC50 in assay [1] is < 0.1 µM. In addition, in assay [2], the IC50 is < 0.1 µM.

Regarding `CC[C@@H]1C[C@]1(NC(=O)[C@@H]1C[C@@H](OC(=O)N2Cc3cccc(F)c3C2)CN1C(=O)[C@@H](Nc1cccc(C(=O)O)c1)C(C)(C)C)C(=O)NS(=O)(=O)C1CC1` [Compound 5], the EC50 in assay [1] is > 1 µM. Also, the concentration for half-maximal inhibition (IC50) in assay [2] was < 0.1 µM.

`C=C[C@@H]1C[C@]1(NC(=O)[C@@H]1C[C@@H](Oc2nccc3ccccc23)CN1C(=O)[C@@H](Nc1ccc(F)c(C(F)(F)F)c1)C(C)(C)C)C(=O)NS(=O)(=O)C1CC1` [Compound 6]: the EC50 in assay [1] was < 0.1 µM. Also, in assay [2], the IC50 is < 0.1 µM.

On to `CC[C@@H]1C[C@]1(NC(=O)[C@@H]1C[C@@H](OC(=O)N2Cc3cccc(Cl)c3C2)CN1C(=O)[C@@H](Nc1cccc(C(F)(F)F)c1)C(C)(C)C)C(=O)NS(=O)(=O)C1(C)CC1` [Compound 282], for which the EC50 in assay [1] was < 0.1 µM. Moreover, in assay [2], the IC50 was < 0.1 µM.

Regarding `CC[C@@H]1C[C@]1(NC(=O)[C@@H]1C[C@@H](OC(=O)N2Cc3cccc(F)c3C2)CN1C(=O)[C@@H](Nc1cccc(C(=O)N2CCN(C)CC2)c1)C(C)(C)C)C(=O)NS(=O)(=O)C1CC1` [Compound 8], the EC50 in assay [1] is > 1 µM. Further, the IC50 in assay [2] was < 0.1 µM.

As for `CC[C@@H]1C[C@]1(NC(=O)[C@@H]1C[C@@H](OC(=O)N2Cc3cccc(F)c3C2)CN1C(=O)[C@@H](Nc1cccc(OC(F)(F)F)c1)C(C)(C)C)C(=O)NS(=O)(=O)C1(C)CC1` [Compound 289], in assay [1], the EC50 was < 0.1 µM. Further, the IC50 in assay [2] is < 0.1 µM.

Take `CC[C@@H]1C[C@]1(NC(=O)[C@@H]1C[C@@H](OC(=O)N2Cc3cccc(F)c3C2)CN1C(=O)[C@@H](Nc1ccc(C(=O)OC)cc1)C(C)(C)C)C(=O)NS(=O)(=O)C1CC1` [Compound 2]: the EC50 in assay [1] is 0.1 to 1 µM. Further, in assay [2], the IC50 is < 0.1 µM.

In assay [1], `CC[C@@H]1C[C@]1(NC(=O)[C@@H]1C[C@@H](OC(=O)N2Cc3cccc(F)c3C2)CN1C(=O)[C@@H](Nc1ccc(-n2cccn2)cc1)C(C)(C)C)C(=O)NS(=O)(=O)C1CC1` [Compound 16] gave an EC50 of 0.1 to 1 µM. Besides, in assay [2], the IC50 is < 0.1 µM.

For the compound `C=C[C@@H]1C[C@]1(NC(=O)[C@@H]1C[C@@H](Oc2cc(-c3nc(C(C)C)cs3)nc3c(C)c(OC)ccc23)CN1C(=O)[C@@H](Nc1cc(C)cc(C(F)(F)F)c1)C(C)(C)C)C(=O)NS(=O)(=O)C1(C)CC1` [Compound 402], the EC50 in assay [1] was < 0.1 µM. The IC50 in assay [2] is < 0.1 µM.

In the case of `CC[C@@H]1C[C@]1(NC(=O)[C@@H]1C[C@@H](Oc2cc(-c3nc(C(C)C)cs3)nc3c(C)c(OC)ccc23)CN1C(=O)[C@@H](Nc1ccc(F)c(C(F)(F)F)c1)C(C)(C)C)C(=O)NS(=O)(=O)C1CC1` [Compound 308], the EC50 in assay [1] was < 0.1 µM. Besides, in assay [2], the IC50 is < 0.1 µM.

Take `C=C[C@@H]1C[C@]1(NC(=O)[C@@H]1C[C@@H](Oc2cc(-c3nc(C(C)C)cs3)nc3c(C)c(OC)ccc23)CN1C(=O)[C@@H](Nc1cccc(C(F)(F)F)c1)C(C)(C)C)C(=O)NS(=O)(=O)C1(C)CC1` [Compound 302]: the EC50 in assay [1] was < 0.1 µM. For the same compound, in assay [2], the IC50 is < 0.1 µM.

Consider `CC[C@@H]1C[C@]1(NC(=O)[C@@H]1C[C@@H](OC(=O)N2Cc3cccc(F)c3C2)CN1C(=O)[C@@H](Nc1cccc(S(=O)(=O)N2CCOCC2)c1)C(C)(C)C)C(=O)NS(=O)(=O)C1CC1` [Compound 10], for which the EC50 in assay [1] is > 1 µM. Also, the IC50 in assay [2] is < 0.1 µM.

As for `C=C[C@@H]1C[C@]1(NC(=O)[C@H]1Cc2cc(Oc3cccc(Cl)c3)ccc2CN1C(=O)[C@@H](Nc1cccc(C(F)(F)F)c1)C(C)(C)C)C(=O)NS(=O)(=O)C1(C)CC1` [Compound 22], the EC50 in assay [1] is > 1 µM. In assay [2], the IC50 was < 0.1 µM.

In the case of `C=C[C@@H]1C[C@]1(NC(=O)[C@@H]1C[C@@H](Oc2cc(-c3nc(C(C)C)cs3)nc3c(C)c(OC)ccc23)CN1C(=O)[C@@H](Nc1ccc(F)c(C(F)(F)F)c1)C(C)(C)C)C(=O)NS(=O)(=O)N(C)C` [Compound 400], the EC50 in assay [1] was < 0.1 µM. The IC50 in assay [2] was < 0.1 µM.

Turning to `CC[C@@H]1C[C@]1(NC(=O)[C@@H]1C[C@@H](Oc2cc(-c3nc(C(C)C)cs3)nc3c(C)c(OC)ccc23)CN1C(=O)[C@@H](Nc1cccc(C(F)(F)F)c1)C(C)(C)C)C(=O)NS(=O)(=O)N(C)C` [Compound 297], the EC50 in assay [1] was < 0.1 µM. Moreover, in assay [2], the IC50 is < 0.1 µM.

Consider `CC[C@@H]1C[C@]1(NC(=O)[C@@H]1C[C@@H](Oc2nc3ccccc3n2CC)CN1C(=O)[C@@H](Nc1cccc(C(F)(F)F)c1)C(C)(C)C)C(=O)NS(=O)(=O)C1(C)CC1` [Compound 232], for which, in assay [1], the EC50 is < 0.1 µM. For the same compound, the IC50 in assay [2] was < 0.1 µM.

As for `CC[C@@H]1C[C@]1(NC(=O)[C@@H]1CC(Oc2cc(-c3nc(C(C)C)cs3)nc3c(C)c(OC)ccc23)CN1C(=O)[C@@H](Nc1cccc(C(F)(F)F)c1)C(C)(C)C)C(=O)NS(=O)(=O)C1CC1` (stereo partly drawn) [Compound 335], the EC50 in assay [1] was < 0.1 µM. For the same compound, the IC50 in assay [2] was < 0.1 µM.

On to `CC[C@@H]1C[C@]1(NC(=O)[C@@H]1C[C@@H](OC(=O)N2Cc3cccc(F)c3C2)CN1C(=O)[C@@H](Nc1cccc(OC(F)(F)F)c1)C(C)(C)C)C(=O)NS(=O)(=O)C1CC1` [Compound 12], for which, in assay [1], the EC50 was < 0.1 µM. Moreover, in assay [2], the IC50 is < 0.1 µM.

Turning to `CC[C@@H]1C[C@]1(NC(=O)[C@@H]1C[C@@H](Oc2cc(-c3nc(C(C)C)cs3)nc3c(C)c(OC)ccc23)CN1C(=O)[C@@H](Nc1ccccc1[N+](=O)[O-])C(C)(C)C)C(=O)NS(=O)(=O)C1CC1` [Compound 350], in assay [1], the EC50 is < 0.1 µM. In addition, in assay [2], the IC50 was > 1 µM.

`C=C[C@@H]1C[C@]1(NC(=O)[C@@H]1Cc2cc(Oc3cccc(Cl)c3)ccc2CN1C(=O)[C@@H](Nc1cccc(C(F)(F)F)c1)C(C)(C)C)C(=O)NS(=O)(=O)C1CC1` [Compound 23]: the EC50 in assay [1] is > 1 µM. Further, the IC50 in assay [2] is < 0.1 µM.
